In the experiment the target is T1, IRAK4 (Homo sapiens, UniProt Q9NWZ3).
T1 construct: endogenous in cells; host or cells: OCI-LY10
T1 sequence (Q9NWZ3 1-460): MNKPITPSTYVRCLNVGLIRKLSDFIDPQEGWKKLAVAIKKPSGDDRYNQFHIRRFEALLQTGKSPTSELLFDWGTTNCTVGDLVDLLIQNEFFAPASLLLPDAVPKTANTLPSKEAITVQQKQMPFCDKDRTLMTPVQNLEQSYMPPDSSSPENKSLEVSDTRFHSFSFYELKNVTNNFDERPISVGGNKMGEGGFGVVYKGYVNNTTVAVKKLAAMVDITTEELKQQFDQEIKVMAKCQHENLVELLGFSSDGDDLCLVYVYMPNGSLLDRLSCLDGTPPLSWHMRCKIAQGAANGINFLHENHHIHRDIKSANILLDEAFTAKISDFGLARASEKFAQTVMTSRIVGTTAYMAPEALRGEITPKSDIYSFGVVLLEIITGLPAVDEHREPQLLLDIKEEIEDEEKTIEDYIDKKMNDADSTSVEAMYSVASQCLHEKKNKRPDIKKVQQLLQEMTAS
The experiment can be described thus: IRAK4 MSD degradation in OCI-LY10. Format: cell-based. The settings on record: OCI-LY10 cells, 24 hrs, Meso Scale Discovery. The protocol: Degradation of IRAK4 in OCI-LY10 was quantitatively measured using Meso Scale Discovery technology. OCI-LY10 cells were seeded in 96-well plates (Coming 3799) with a density of 300,000 cells per well in 100 μL fresh media. Compounds were then added to the assay plates with a final top concentration of 1 to 10 μM in a 1:3 dilution series with total of 8 doses. The assay plates were then incubated for 4 to 24 hours at 37° C. under 5% CO2. The assay plates were then centrifuged for 5 minutes and the cell pellets were treated with 100 μL/well RIPA lysis buffer (Boston BioProducts BP-115D) with proteinase inhibitors. To prepare MSD assay plates (Meso Scale Discovery Catalog number L15XA-3), the plates were coated with […] capture antibody (mouse Anti-IRAK4 antibody [2H9], ab119942) in PBS, at 40 μL/well. The plates were then incubated overnight at 4° C., washed 3 times with 150 μL/well TBST buffer (Cell Signaling Technology, Catalog number 9997S) and blocked with 150 μL/well blocking buffer (Meso Scale Discovery Catalog number R93BA-4). Cell lysates were then added to MSD assay plates and the plates were incubated at room temperature for 1 hour. The plates were then washed 3 times with 150 µL/well TBST buffer and 25 μL/well primary detection antibody (rabbit Anti-IRAK4 antibody [Y279], from Abcam. Catalog number ab32511, 1 μg/mL). The assay plates were then incubated at room temperature for 1 hour, washed 3 times with 150 μL/well TBST buffer and 25 μL/well secondary detection antibody, SULFO-TAG anti-rabbit antibody were added (anti rabbit antibody from Meso Scale Discovery, Catalog number R32AB-1, 1 μg/mL). The assay plates were then incubated at room temperature for 1 hour, washed 3 times with 150 μL/well TBST buffer, and 150 μL/well MSD reading buffer (Meso Scale Discovery catalog number R92TC-2) was added. The plates were then analyzed by a MSD reader (Meso Scale Discovery, Model Quick Plex SQ 120). The data was then analyzed by software Prism 7.0 from GraphPad and the dose-depended IRAK4 degradation were fit using a three-parameter logistic equation to calculate DC50.
The letter codes for IRAK4 DC50 include: A (<1 μM); B (1-10 μM); and C ([…]).

`CC(C)(O)c1cc2nn([C@H]3CC[C@H](CN4CCC(CCN(CCCCN5CCC(c6ccc(Nc7nc(N8CCCCC8)cnc7C(N)=O)cc6)CC5)c5cccc6c5C(=O)N(C5CCC(=O)NC5=O)C6=O)CC4)CC3)cc2cc1NC(=O)c1cccc(C(F)(F)F)n1` (stereo partly shown) [Compound I-4] gave a 50% degradation concentration (DC50) of less than 1000 nM.

Consider `CC(C)(O)c1cc2nc([C@H]3CC[C@H](CN4CCC(CCN(CCCCN5CCC(c6ccc(Nc7nc(N8CCCCC8)cnc7C(N)=O)cc6)CC5)c5cccc6c5C(=O)N(C5CCC(=O)NC5=O)C6=O)CC4)CC3)sc2cc1NC(=O)c1cccc(C(F)(F)F)n1` (stereo partly drawn) [Compound I-5, 3-((4-(1-(4-((2-(2,6-Dioxopiperidin-3-yl)-1,3-dioxoisoindolin-4-yl)(2-(1-(((1R,4R)-4-(5-(2-hydroxypropan-2-yl)-6-(6-(trifluoromethyl)picolinamido)benzo[d]thiazol-2-yl)cyclohexyl)methyl)piperidin-4-yl)ethyl)amino)butyl)piperidin-4-yl)phenyl)amino)-5-(piperidin-1-yl)pyrazine-2-carboxamide], for which the DC50 is less than 1000 nM.

Regarding `NC(=O)c1ncc(N2CCCCC2)nc1Nc1ccc(C2CCN(CCCCN(CCC3CCN(C[C@H]4CC[C@H](n5cc(NC(=O)c6cnn7ccc(N8CCOCC8)nc67)c(C(F)F)n5)CC4)CC3)c3cccc4c3C(=O)N(C3CCC(=O)NC3=O)C4=O)CC2)cc1` (stereo partly shown) [Compound I-6], the half-maximal degradation concentration (DC50) is 1000 to 10000 nM.

With `CC(C)(O)c1cc2nc([C@H]3CC[C@H](CN4CC5(CC(C(CNc6cccc7c6C(=O)N(C6CCC(=O)NC6=O)C7=O)CN6CCC(c7ccc(Nc8nc(N9CCCCC9)cnc8C(N)=O)cc7)CC6)C5)C4)CC3)sc2cc1NC(=O)c1cccc(C(F)(F)F)n1` (stereo partly shown) [Compound I-7], the DC50 was 1000 to 10000 nM.

As to `CC(C)(O)c1cc2nn([C@H]3CC[C@H](CN4CC5(CC(C(CNc6cccc7c6C(=O)N(C6CCC(=O)NC6=O)C7=O)CN6CCC(c7ccc(Nc8nc(N9CCCCC9)cnc8C(N)=O)cc7)CC6)C5)C4)CC3)cc2cc1NC(=O)c1cccc(C(F)(F)F)n1` (stereo partly shown) [Compound I-8], the DC50 is less than 1000 nM.

On to `NC(=O)c1ncc(N2CCCCC2)nc1Nc1ccc(C2CCN(CC(CNc3cccc4c3C(=O)N(C3CCC(=O)NC3=O)C4=O)C3CC4(C3)CN(C[C@H]3CC[C@H](n5cc(NC(=O)c6cnn7ccc(N8CCOCC8)nc67)c(C(F)F)n5)CC3)C4)CC2)cc1` (stereo partly shown) [Compound I-9], for which the 50% degradation concentration (DC50) was less than 1000 nM.

`Cn1c(=O)n(C2CCC(=O)NC2=O)c2cccc(CCCCN(CCNC(=O)[C@H]3CC[C@H](n4cc5cc(NC(=O)c6cccc(C(F)(F)F)n6)c(C(C)(C)O)cc5n4)CC3)CC(=O)N3CC(N4CCC(c5ccc(Nc6nc(N7CCCCC7)cnc6C(N)=O)cc5)CC4)C3)c21` (stereo partly drawn) [Compound I-14, 3-((4-(1-(1-(2-((4-(1-(2,6-Dioxopiperidin-3-yl)-3-methyl-2-oxo-2,3-dihydro-1H-benzo[d]imidazole-4-yl)butyl)(2-((1R,4R)-4-(6-(2-hydroxypropan-2-yl)-5-(6-(trifluoromethyl)picolinamido)-2H-indazol-2-yl)cyclohexanecarboxamido)ethyl)amino)acetyl)azetidin-3-yl)piperidin-4-yl)phenyl)amino)-5-(piperidin-1-yl)pyrazine-2-carboxamide] yielded a DC50 of less than 1000 nM.

`Cn1c(=O)n(C2CCC(=O)NC2=O)c2cccc(CCCCN(CCNC(=O)[C@H]3CC[C@H](n4cc5cc(NC(=O)c6cccc(C(F)(F)F)n6)c(C(C)(C)O)cc5n4)CC3)CC(=O)N3CCC(c4ccc(Nc5nc(N6CCCCC6)cnc5C(N)=O)cc4)CC3)c21` (stereo partly shown) [Compound I-15] gave a half-maximal degradation concentration (DC50) of less than 1000 nM.

In turn, `Cc1ncsc1-c1ccc(CNC(=O)[C@@H]2C[C@@H](O)CN2C(=O)[C@@H](NC(=O)COCCOCCN2CCC(c3ccc(Nc4nc(N5CCCCC5)cnc4C(N)=O)cc3)CC2)C(C)(C)C)c(OCCOCCN(C)C[C@H]2CC[C@H](n3cc4cc(NC(=O)c5cccc(C(F)(F)F)n5)c(C(C)(C)O)cc4n3)CC2)c1` [Compound I-17] came in with a DC50 of 1000 to 10000 nM.

Compound `Cc1ncsc1-c1ccc(CNC(=O)[C@@H]2C[C@@H](O)CN2C(=O)[C@@H](NC(=O)COCCOCCN2CCN(C(=O)c3ccc(Nc4nc(-c5cccc(NC(=O)c6ccc(C(C)(C)C)cc6)c5C)cn(C)c4=O)cc3)CC2)C(C)(C)C)c(OCCOCCN(C)C[C@H]2CC[C@H](n3cc4cc(NC(=O)c5cccc(C(F)(F)F)n5)c(C(C)(C)O)cc4n3)CC2)c1` [Compound I-18] came in with a half-maximal degradation concentration (DC50) of 1000 to 10000 nM.

The values are drawn from patent publication US20230416242A1, “DOUBLE DEGRADERS AND USES THEREOF” (Kymera Therapeutics, Inc., priority 2020, published 2023).
